The source of these data is patent US11723948B2, “Method for treating and prognosing cancer” (INSERM (INSTITUT NATIONAL DE LA SANTE ET DE LA RECHERCHE …, priority 2015, dated 2023).

In assay [1] the test system is MCF-7 cells. The settings on record: non-invasive breast cancer cell line MCF-7; cited from earlier work.
The subject of assay [2] is PCTC #1. Kind of assay: ELISA of global DNA methylation (5-methylcytosine). As to conditions: PCTC #1 treated during 30 days. The assay is classed as cell-based, human. The text has this:
DNA was extracted by using the QiaAmp DNA mini Kit (Qiagen, France). Next, global DNA methylation was estimated by quantifying the presence of 5-methylcytosine using Methylamp Global DNA methylation Quantification kit (Euromedex-Epigentek, France) according to the manufacturers's instructions.
The analysis of all interactions being impossible, we postulated that if P1 inhibited a large number of DNMT3A/D3A-BP interactions, an hypomethylation phenotype would be observable. To observe the putative P1-induced DNA hypomethylation, PCTC #1 were treated during 30 days with P1 (data not shown). Other DNMT inhibitors (5-aza-2-deoxycytidine (5-aza), theaflavin 3,3 digallate (a DNMT3A inhibitor, hereafter called TFD), or peptides (UP peptide, a peptide inhibiting the DNMT1/PCNA/UHRF1 interactions)) were also used as control conditions.
For orientation: In an ELISA, binding on a coated surface is turned into a signal by an enzyme label.

The test system of assay [3] is ZR-75-1. The settings on record: non-invasive breast cancer cell line ZR-75-1; cited from earlier work.
Assay [4] concerns primary cultured tumor cells (PCTC) from GBM. Description: Proliferation assay, doubling time. The assay is classed as cell-based, human. As to conditions: counted every 24 h over 120 h. The procedure: Doubling time (i.e. the period of time required for a quantity to double in size) was calculated by using the Doubling Time Online Calculator website (Roth V. 2006, http://www.doubling-time.com/compute.php) and counting the proliferation of […] over 120 hours. Cell number was determined, every 24 h over 120 h, using the Countess® Automated Cell Counter (Life Technologies, France).
To estimate the impact of the P1-induced disruption of DNMT3A/ISGF3γ interactions on proliferation, we calculated the doubling time.

Assay [5] has the same test system. Kind of assay: Collagen-based cell invasion assay. Also on record: species or system human. As to conditions: 72 h incubation. The procedure:
All of the procedures were followed according to the manufacturer's instructions (QCM 24-Well Collagen-Based Cell Invasion Assay, Millipore, France). In brief, 200 μl serum-free medium containing 2×10^5 cells were seeded into the invasion chamber and placed into the 24 well plate containing 500 μl complete medium. After 72 h incubation at 37° C., media was removed from the chamber, and cells were stained by putting the chamber in staining solution for 20 min at room temperature. Non-invaded cells were carefully removed from the top-side of the chamber. Stained chamber was inserted into a clean well containing 200 μl of extraction buffer for 15 min at room temperature. 100 μl extracted stained solution from the chamber was transferred into the 96 well plate and optical density was measured at 560 nm with a spectrophotometer.

The test system is the same in assay [6]. Description: Temozolomide+irradiation-induced cell death (trypan blue). The assay is classed as cell-based, human. The settings on record: temozolomide 25 μM and irradiation 2 Gy. The procedure: Percentages of cell death were evaluated by using a Trypan Blue Stain 0.4%, and the Countess® Automated Cell Counter (Life Technologies, France). Cell death was induced using temozolomide (25 μM) and irradiation (2 Gy) such as previously described.
To evaluate the impact of the P1-induced disruption of the DNMT3A/ISGF3γ interactions on the sensitivity of apoptosis induced by a therapeutic treatment, we measured the percentage of temozolomide+irradiation-induced cell death since temozolomide (TMZ) and irradiation are conjugated in anti-GBM treatment [Cheray M et al., 2013 and Louis D et al., 2007]. […] Thus, we conclude that P1 acts as a sensitizer of the temozolomide+irradiation-induced cell death.

Assay [7] shares this test system. Description: Migration assay, scratch test. The assay is classed as cell-based, human. As to conditions: 24 hours, mitomycin C pre-treatment. The procedure: Cell migration assay was performed using a scratch technique. Cells were plated in 6-well plates at 80-90%, and were treated with 10 μg/ml mitomycin C (Sigma, France) for 2 hours (in order to remove the influence of cell proliferation). Cells were then scratched. Cell migration was monitored by microscopy. The images acquired for each sample were analyzed quantitatively. For each image, distances between one side of scratch and the other were measured. By comparing the images from time 0 to the last time point (24 hours), we obtain the distance of each scratch closure on the basis of the distances that are measured.
Impact of the P1-induced disruption of the DNMT3A/ISGF3γ interactions on migration capability was next estimated by performing a scratch test assay.

The target of assay [8] is T1, DNMT3A/ISGF3γ interaction (Homo sapiens, UniProt Q00978).
T1 construct: GST
T1 sequence (Q00978 1-393): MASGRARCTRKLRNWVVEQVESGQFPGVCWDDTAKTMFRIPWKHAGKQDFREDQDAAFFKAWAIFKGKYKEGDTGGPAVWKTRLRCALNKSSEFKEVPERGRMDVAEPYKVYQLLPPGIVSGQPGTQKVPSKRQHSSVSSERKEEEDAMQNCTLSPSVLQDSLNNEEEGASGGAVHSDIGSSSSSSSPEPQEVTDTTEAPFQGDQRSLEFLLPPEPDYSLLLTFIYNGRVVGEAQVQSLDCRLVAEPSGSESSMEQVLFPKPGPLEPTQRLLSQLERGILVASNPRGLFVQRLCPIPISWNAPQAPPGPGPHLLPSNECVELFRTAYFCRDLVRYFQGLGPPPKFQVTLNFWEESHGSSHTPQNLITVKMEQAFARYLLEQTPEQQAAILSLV
Description: Competitive pull-down assay of the DNMT3A/ISGF3γ interaction. The assay is classed as binding. As to conditions: for inhibition of the DNMT3A/ISGF3γ interaction: peptides pre-incubated 1 h at 37° C., FIG. 2A. The procedure: Pull-down assays were performed by using the GST/His Tagged-Protein Interaction Pull-Down Kits (Thermo Scientific, France). Briefly, 100 μg of bait protein were immobilized on column via an incubation at 4° C. for 1 h with gentle mixing. After washing, 1 μg of prey protein was added for 1 h at 4° C. with gentle rocking motion on a rotating platform. After washes and elution, the “bait-prey” interaction was analyzed by SDS-PAGE and Western blot methods. Competitive pull-down experimentations were realized by pre-incubating considered peptides for 1 h at 37° C.
In brief, proteins were size fractionated by sodium dodecyl sulfate-polyacrylamide gel electrophoresis. Proteins were transferred onto nitrocellulose or PVDF membrane. Saturation and blotting were realized by using SNAP I.™ Protein Detection System (Millipore, France). The detection of proteins was performed using ECL™ (Amersham Biosciences, France) and/or SuperSignal west femto Maximum Sensitivity (Thermo Scientific, France) chemilumenescence reagents. The detection of proteins was performed using the FusionX7 Imager (Fisher Scientific, France).

In assay [9] the test system is PCTC-GBM glioma cells having high level of DNMT3A/ISGF3γ interactions. Description: Established subcutaneous glioma tumors in swiss nude mice. The assay is classed as in vivo. The settings on record: treatment from tumor volume 100 mm^3, after 3 weeks of treatment; FIG. 3B. The procedure: A. Design of the experiment. […] Then, mice were treated with indicated treatment. D: day, w: week, it: intra-tumoral, ip: Intraperitoneal.
B. Graph illustrates the impact of the 4 considered treatments on tumor weight of established tumors. Open circles represent mice. Black circles represent the average±standard deviation obtained for each treatment. p values were obtained by performing a t test.
Cultured cells were harvested by trypsinization, washed and resuspended in saline buffer. Cell suspensions were injected s.c. as 2.106 cells in 0.05 ml of PBS with equal volume of matrigel matrix (Becton Dickinson, France) in the flank of 7/8-week-old Nude NMRI-nu female mice (Janvier, France). After tumor establishment, mice were treated with temozolomide and/or peptides via intra-tumor injection (it). To obtain tumor weigh, each tumor was surgically removed and is weighed. All experimental procedures using animals were realized in accordance with the guidelines of Institutional Animal Care and the French National Committee of Ethics.
Standard anti-GBM treatment using temozolomide as chemotherapeutic agent, we next investigated the effect of a treatment associating P1 peptide with TMZ in a swiss nude mice model of established tumors.

Assay [10] deals with DNMT3A/AP2γ interaction. Description: P-LISA in PCTC #1, DNMT3A/AP2γ. The assay is classed as cell-based, human. As for the experimental part:
(§1) Cells were cultured for 24 h on cover slip. Cells were then fixed with 4% paraformaldehyde in PBS pH7.4 for 15 min at room temperature. Permeabilization is performed with PBS containing 0.5% Triton X-100 for 20 min at room temperature. Blocking, staining, hybridization, ligation, amplification and detection steps were realized according to manufacturer's instructions (Olink Bioscience, Sweden). All incubations were performed in a humidity chamber. Amplification and detection steps were performed in dark room. Fluorescence was visualized by using the Axiovert 200M microscopy system (Zeiss, Le Pecq, France) with ApoTome module (X63 and numerial aperture 1.4). Preparations were mounted by using ProLong Gold antifade reagent with DAPI (Life Technologies, France). Pictures acquisition was realized in structured illumination microscopy. […] Finally, the images were analyzed by using the freeware “BlobFinder” available for download from www.cb.uu.se/˜amin/BlobFinder. […]
(§2) For electroporation, NLS sequence was added to peptides. […] Electroporation efficiency for each cell line was initially determined by flow cytometry by uptake of the fluorescent dye, lucifer yellow (Sigma, France). […]
(§3) P1 was designed to inhibit the DNMT3A/ISGF3γ interactions. […] To investigate this point, we analyzed the effect of P1 on the DNMT3A/D3A-BP interactions of interest. […]

Assay [11] concerns the target T2, DNMT3A/GATA1 interaction (Homo sapiens, UniProt P15976).
T2 construct: endogenous in cells; host or cells: PCTC #1 (primary cultured glioblastoma tumor cells)
Description: P-LISA in PCTC #1, DNMT3A/GATA1. The assay is classed as cell-based. The procedure: as §1, §2, §3

In assay [12] the target is T3, DNMT3A/HDAC1 interaction (Homo sapiens, UniProt Q13547).
T3 construct: endogenous in cells; host or cells: PCTC #1 (primary cultured glioblastoma tumor cells)
T3 sequence (Q13547 whole entry): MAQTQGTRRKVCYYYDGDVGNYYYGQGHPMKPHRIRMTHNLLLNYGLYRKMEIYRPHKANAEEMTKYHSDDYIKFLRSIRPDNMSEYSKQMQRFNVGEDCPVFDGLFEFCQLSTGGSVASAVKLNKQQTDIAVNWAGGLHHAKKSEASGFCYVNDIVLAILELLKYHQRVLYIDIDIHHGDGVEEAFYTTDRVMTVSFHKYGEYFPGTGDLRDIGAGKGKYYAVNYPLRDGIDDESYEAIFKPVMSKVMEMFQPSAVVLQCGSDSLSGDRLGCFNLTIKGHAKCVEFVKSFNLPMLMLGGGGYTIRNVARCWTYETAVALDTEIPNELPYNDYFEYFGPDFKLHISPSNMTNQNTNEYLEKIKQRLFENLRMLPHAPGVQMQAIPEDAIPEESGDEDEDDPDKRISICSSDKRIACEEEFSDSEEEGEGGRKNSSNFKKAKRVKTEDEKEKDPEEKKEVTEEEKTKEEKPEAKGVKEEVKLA
Description: P-LISA in PCTC #1, DNMT3A/HDAC1. The assay is classed as cell-based. As for the experimental part: as §1, §2, §3

Assay [13] concerns MGMT. Kind of assay: qMSP of MGMT methylation. As to conditions: cells treated with peptide. The assay is classed as cell-based, human. The text has this: In glioma, MGMT methylation is associated with a good responsive of anti-glioma treatment including TMZ and irradiation [Esteller M et al., 2000 and Hegi M et al., 2005].
Assay [14] deals with T4, DNMT3A/ISGF3γ interactions (Homo sapiens, UniProt Q00978).
T4 construct: we used a PCTC (named PCTC #1); endogenous in cells; host or cells: PCTC #1 (primary cultured glioblastoma tumor cells)
T4 sequence (Q00978 1-393): T1 sequence (Q00978 1-393)
Description: Proximity Ligation In Situ Assay (P-LISA) in PCTC #1, DNMT3A/ISGF3γ. The assay is classed as cell-based. The settings on record: PCTC #1, P-LISA 12 hr after electroporation of peptide. As for the experimental part:
Cells were cultured for 24 h on cover slip. Cells were then fixed with 4% paraformaldehyde in PBS pH7.4 for 15 min at room temperature. Permeabilization is performed with PBS containing 0.5% Triton X-100 for 20 min at room temperature. Blocking, staining, hybridization, ligation, amplification and detection steps were realized according to manufacturer's instructions (Olink Bioscience, Sweden). All incubations were performed in a humidity chamber. Amplification and detection steps were performed in dark room. Fluorescence was visualized by using the Axiovert 200M microscopy system (Zeiss, Le Pecq, France) with ApoTome module (X63 and numerial aperture 1.4). Preparations were mounted by using ProLong Gold antifade reagent with DAPI (Life Technologies, France). Pictures acquisition was realized in structured illumination microscopy. After decovolving (3.5 Huygens Essential software (SVI)), 3D view was obtained by using Amira.4.1.1 program. Finally, the images were analyzed by using the freeware “BlobFinder” available for download from www.cb.uu.se/˜amin/BlobFinder. Thus, we obtained either number of signals per nuclei since nuclei can be automatically identified.
as §2

T2 sequence (P15976 whole entry): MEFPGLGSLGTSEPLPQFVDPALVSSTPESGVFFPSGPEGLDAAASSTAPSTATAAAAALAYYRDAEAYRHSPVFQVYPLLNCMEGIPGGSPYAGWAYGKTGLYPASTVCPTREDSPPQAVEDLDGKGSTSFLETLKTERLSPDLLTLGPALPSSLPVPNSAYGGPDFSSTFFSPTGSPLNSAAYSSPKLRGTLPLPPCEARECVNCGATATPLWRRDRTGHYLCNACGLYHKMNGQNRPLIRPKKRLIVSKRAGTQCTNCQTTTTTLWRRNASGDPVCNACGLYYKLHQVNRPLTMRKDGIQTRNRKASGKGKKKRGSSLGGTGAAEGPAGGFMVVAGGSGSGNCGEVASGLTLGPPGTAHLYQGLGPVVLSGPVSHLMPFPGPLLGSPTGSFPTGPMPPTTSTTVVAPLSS

Take `Nc1ncn([C@H]2C[C@H](O)[C@@H](CO)O2)c(=O)n1` [5-aza, 5-aza-2-deoxycytidine]: the invasiveness result in [1] and in [3] was “increased the invasiveness” throughout. The “global level of 5-methylcytosine” value in assay [2] is “decreased the global level of DNA methylation”.

With `O=C(O[C@@H]1Cc2c(O)cc(O)cc2O[C@@H]1c1cc(O)c(=O)c2c(O)c(O)cc([C@H]3Oc4cc(O)cc(O)c4C[C@H]3OC(=O)c3cc(O)c(O)c(O)c3)c2c1)c1cc(O)c(O)c(O)c1` [TFD, theaflavin 3,3 digallate, reference compound], in [4], the “doubling time of cells” value is on record as “no effect”. Besides, the cell invasion result in assay [5] is reported as “promoted the cell invasion”. Further, in assay [6], the “percentage of temozolomide+irradiation-induced cell death” value is on record as “increased”. Moreover, in [2], the “global level of 5-methylcytosine” value is reported as “decreased the global level of DNA methylation”. For the same compound, the cell migration entry in assay [7] is reported as “had no effect on cell migration”.

In the case of “RPMPRLTAQAGAPYYI (Synthetic P1mut) [P1^mut, mutated P1 peptide, reference compound]”, in assay [8], the “inhibition of the DNMT3A/ISGF3γ interaction” value was “does not inhibit the DNMT3A/ISGF3γ interaction”.

Consider RPMPRLTFQAGDPYYI (Synthetic P1), for which the “DNMT3A/ISGF3γ interaction with increasing peptide concentration” value in assay [8] (increasing concentration of peptide, FIG. 2B) is on record as “decreased”. In addition, the “inhibition of the DNMT3A/ISGF3γ interaction” value in assay [8] was “inhibited the DNMT3A/ISGF3γ interaction”. For the same compound, the “tumor growth (tumor weight/volume) of established tumors” value in [9] is listed as “no statistical difference”. Moreover, in assay [4], the “doubling time of cells” value is reported as “no effect”. Also, the “integrity of the DNMT3A/AP2γ interaction” value in assay [10] is recorded as “no effect”. Further, in assay [5], the cell invasion entry was “unmodified the cell invasion characteristic”. In addition, the “percentage of temozolomide+irradiation-induced cell death” value in [6] is reported as “increased”. The “percentage of cell death compared with the other treatment” value in assay [6] (P1 versus TDF) is given as “higher than the one obtained with TDF”. For the same compound, the “integrity of the DNMT3A/GATA1 interaction” value in assay [11] was “no effect”. Moreover, the “integrity of the DNMT3A/HDAC1 interaction” value in assay [12] was “no effect”. The “global level of 5-methylcytosine” value in assay [2] is recorded as “had not effect”. Besides, the cell migration entry in [7] is “decreased cell migration”. Also, the “methylation level of MGMT” value in [13] is reported as “remains unchanged”. The “red dots representing the DNMT3A/ISGF3γ interactions” value in [14] was “decreased”.
